Laboratory results reported in US9603354B2, “Protective solutions for organs” (DR. FRANZ KOEHLER CHEMIE GMBH, priority 2002, dated 2017).

Tests used:
[1] = tested on: hepatocytes; test: Cell damage of hepatocytes by hydrogenperoxide (FIG. 5); format: cell-based; settings: 1 mM/l in N4 solution + 20 mM/l H2O2
Description: 1: N4+20 mM/l H2O2 • graph no. 2: N4+20 mM/l H2O2+1 mM/l 4-chloro-N-methyl-benzohydroxamic acid • graph no. 3: N4+20 mM/l H2O2+1 mM/l 2-hydroxy-3-methyl-isocarbosteryl • graph no. 4: N4+20 mM/l H2O2+1 mM/l 3,4,5-trimethoxy-N-methyl-benzohydroxamic acid • graph no. 5: N4+20 mM/l H2O2+1 mM/l 3,4-dimethoxy-N-methyl-hydroxamic acid, N4 meaning the solution according to example II given hereinafter, but without Trolox and without hydroxamic acid derivative.

[2] = tested on: iron-dependent hypothermic injury, cold-induced apoptosis; test: Inhibition of iron-dependent hypothermic injury / cold-induced apoptosis by iron-chelating agents; format: cell-based
Description: Iron-chelating agents may serve for the inhibition of the iron-dependent hypothermic injury, or of the cold-induced apoptosis.

[3] = tested on: rat hepatocytes; test: Hypothermic injury of cultivated rat hepatocytes in UW solution, LDH release (FIG. 2); format: cell-based; settings: 1 mM; 24 hrs at 4° C. in UW solution, aerobic; reheated 3 hrs at 37° C. in cell culture medium
Description: Cultivated rat hepatocytes were incubated for 24 hrs at 4° C. in a University of Wisconsin solution (UW) under aerobic conditions in the presence of, and in the absence of 1 mM of 3,4-dimethoxy-N-methyl-benzohydroxamic acid, and subsequently reheated for 3 hrs in a cell culture medium (37° C.). The secretion of cytosolic lactate […] (LDH) served as the parameter of the cell damage.

[4] = Neutralization curve / buffer capacity (FIG. 3); format: physicochemical; settings: for usable buffer capacity in the range of the physiological pH value: based on the ratio of spent base to substrate
Description: The usable buffer capacity in the range of the physiological pH value; with N-acetylhistidine 60%, and with histidine 30% based on the ratio of spent base to substrate.

[5] = tested on: rat hepatocytes; test: Toxicity of histidine under warm conditions in cultivated rat hepatocytes (FIG. 4); format: cell-based; settings: 198 mM; 5 hrs at 37° C., aerobic, Krebs-Henseleit buffer, pH 7.2
Description: Cultivated rat hepatocytes were incubated for 5 hrs at 37° C. under aerobic conditions in the presence of, and in the absence of 198 mM of L-histidine, or 198 mM of N-acetylhistidine. The base solution was Krebs-Henseleit buffer (KH), a physiological saline solution often used in cell cultures; the NaCl concentration of the histidine (derivative) containing solution was decreased by 99 mM and the histidine (derivative) solution was adjusted by the addition of HCl or NAOH to pH 7.2.

[6] = tested on: rat liver endothelial cells; test: Hypothermic injury of cultivated rat liver endothelial cells, LDH release (FIG. 1); format: cell-based; settings: 1 mM; 72 hrs at 4° C. in UW solution, aerobic; rewarmed 3 hrs at 37° C. in cell culture medium
Description: Cultivated rat liver endothelial cells were incubated for 72 hrs at 4° C. in University of Wisconsin solution (UW) under aerobic conditions in the presence of, and in the absence of 1 mM of salicyl-N-methylhydroxamic acid, and subsequently rewarmed for 3 hrs in a cell culture medium (37° C.). The release of cytosolic lactate dehydrogenase (LDH) served as the parameter of the cell damage.

| Compound | protection from cell damage by hydrogenperoxide [1] | effectiveness in avoiding iron-dependent hypothermic injury [2] | other results |
| --- | --- | --- | --- |
| Cc1cc2ccccc2c(=O)n1O [2-hydroxy-3-methyl-isocarbosteryl, 2-hydroxy-3-methyl-isocarbostyril] | protection |  |  |
| COc1cc(C(=O)N(C)O)cc(OC)c1OC [3,4,5-trimethoxy-N-methyl-benzohydroxamic acid] | protection |  |  |
| O=c1c2ccccc2nnn1O [3,4-dihydro-3-hydroxy-4oxo-1,2,3-benzotriazine] |  | ineffectiveness |  |
| COc1ccc(C(=O)N(C)O)cc1OC [3,4-dimethoxy-N-methyl-benzohydroxamic acid] | protection |  | inhibition of hypothermic injury (cytosolic LDH) [3]: inhibition of hypothermic injury |
| CN(O)C(=O)c1ccc(Cl)cc1 [4-chloro-N-methyl-benzohydroxamic acid] | protection |  |  |
| O=C(O)CN(CCN(CC(=O)O)CC(=O)O)CC(=O)O [EDTA] |  | ineffective |  |
| CC(=O)N[C@@H](Cc1c[nH]cn1)C(=O)O [N-acetylhistidine] |  |  | usable buffer capacity in the range of the physiological pH value [4]: 60%; buffer capacity improved by factor compared to histidine/histidine HCl ([4]; factor versus histidine/histidine HCl): 2 |
| O=C1CCC(=O)N1O [N-hydroxysuccinimide] |  | ineffectiveness |  |
| N[C@@H](Cc1c[nH]cn1)C(=O)O [histidine, L-histidine] |  | ineffective | usable buffer capacity in the range of the physiological pH value [4]: 30%; toxicity under warm conditions [5]: toxicity |
| CN(O)C(=O)c1ccccc1O [salicyl-N-methylhydroxamic acid] |  |  | inhibition of hypothermic injury (release of cytosolic LDH) [6]: inhibition of hypothermic injury |
